Data on 2 compounds can be found in patent US8664267B2 (Academic Pharmaceuticals Incorporated, priority 2007, dated 2014).

The conditions of data set [1]: administered intravenously; cited from earlier work.
In a further data set the test system is dog. The following applies: Torres-Arrault et al. 1984, cited from earlier work.

Each structure is given as a SMILES string.

For `CCCCc1oc2ccccc2c1C(=O)c1cc(I)c(OCCN(CC)CC)c(I)c1` [amiodarone, 2-n-butyl-3-(3,5-diiodo-4-β-N-diethylaminoethoxy-benzoyl)benzofuran], the “dose-dependent suppression of arrhythmias compared with the saline control group” value in the data set on Coronary Occlusion (Rat) was “significantly different”. Also, the “onset of action and hemodynamic and electrophysiological effect” value in data set [1] is “rapid onset of action causing profound hemodynamic and electrophysiological effect”.

On to `CCCCCCCC/C=C\CCCCCCCC(=O)OCCOCC(OCCO)C1OCC(OCCO)C1OCCO` (stereo not shown) [Tween-80, polysorbate 80], for which the cardiac depressant effect result with dog is recorded as “potent cardiac depressant”. For the same compound, the hypotension result in the data set with dog (dog) is on record as “causes hypotension”.
